Literature values in US12649947B2, “Method of treatment using genetic predictors of a response to treatment with CRHR1 antagonists” (HMNC Holding GmbH, priority 2015, dated 2026).

System: mice overexpressing CRH in the forebrain

COCC(COC)Nc1nc(C)nc2c(-c3ccc(Cl)cc3Cl)c(C)nn12 [DMP696]
effect on REM sleep enhancement: could reverse the REM enhancement
